In brackets after ≈: the same amount, converted by molar mass. Where a name gives a salt, the structure may show the parent alone. Read-outs that look alike come from different tables or passages of the source.
Tests used:
Format in all cases: cell-based
[1] = system: Serratia marcescens ES-75; assay: MIC, standard agar dilution method, Serratia marcescens ES-75; conditions: ES75, Mueller Hinton agar, 18 hours, 37° C.
Procedure: (§1) Minimal inhibitory concentration (MIC) was determined by the standard agar dilution method of the Japan Society of Chemotherapy.
(§2) Compounds were dissolved in appropriate solvents (sterilized water for sodium salts and acetone-water [1:1] for free acids) and serial two-fold dilutions were made. Sodium salt of Cefazolin was chosen as the control compound.
(§3) One-ml aliquots of each dilution were mixed with 9 ml of Mueller Hinton gar in petri-dishes to make agar plates containing the compound at serially diluted concentrations. After agar hardened, plates were put in an incubator at 37° C. for 1.5-2 hours with the lids slightly open to evaporate acetone off the plates.
(§4) Test organisms were grown for 18 hours at 37° C. in Trypticase Soy broth and diluted in saline to approximately 10^6 colony forming units per ml. A loopful of each cell suspension was applied on the agar plate mentioned above and the plates were incubated for 18 hours at 37° C. before MIC was determined.
(§5) The results are shown in Table 2, wherein the compound of Example 5 was selected and used in a form of free carboxylic acid as set forth in the Example 5, Item (a).

[2] = system: Proteus morganii EP-14; assay: MIC, standard agar dilution method, Proteus morganii EP-14; conditions: Morganella morganii, EP14, Mueller Hinton agar, 18 hours, 37° C.
Procedure: as §1, §2, §3, §4, §5

[3] = system: Pseudomonas aeruginosa EP-172; assay: MIC, standard agar dilution method, Pseudomonas aeruginosa EP-172; conditions: EP172, Mueller Hinton agar, 18 hours, 37° C.
Procedure: as §1, §2, §3, §4, §5

[4] = system: Proteus bulgaris E-18; assay: MIC, standard agar dilution method, Proteus bulgaris E-18; conditions: Mueller Hinton agar, 18 hours, 37° C.
Procedure: as §1, §2, §3, §4, §5

[5] = system: Staphylococcus aureus 209-P; assay: MIC, standard agar dilution method, Staphylococcus aureus 209-P; conditions: Mueller Hinton agar, 18 hours, 37° C.
Procedure: as §1, §2, §3, §4, §5

[6] = system: Escherichia coli NIHJ; assay: MIC, standard agar dilution method, Escherichia coli NIHJ
Procedure: as §1, §2, §3, §4, §5

[7] = system: Klebsielle pneumoniae EK-6; assay: MIC, standard agar dilution method, Klebsielle pneumoniae EK-6
Procedure: as §1, §2, §3, §4, §5

[8] = Escherichia coli NIHJ, Mueller Hinton agar, 18 hours, 37° C., read-out: MIC
[9] = Klebsielle pneumoniae EK-6, Mueller Hinton agar, 18 hours, 37° C., read-out: MIC

Structure (SMILES) | MIC [1] [µg/mL] | MIC [2] [µg/mL] | MIC [3] [µg/mL] | MIC [4] [µg/mL] | MIC [5] [µg/mL] | MIC ([6]; Escherichia coli, 18 h) [µg/mL] | MIC ([7]; 18 h) [µg/mL] | MIC [6, 8] [µg/mL] | MIC [7, 9] [µg/mL]
Cc1nnc(SCC2=C(C(=O)O)N3C(=O)[C@@H](NC(=O)Cn4cnnn4)[C@H]3SC2)s1 [Control, Sodium salt of Cefazolin, reference compound] | > 100 | > 100 | > 100 | > 3200 | 0.4 | 1.56 | 1.56 | – | –
CO[C@@]1(NC(=O)[C@H](NC(=O)c2coc3cc(OC(C)=O)c(OC(C)=O)cc3c2=O)c2ccc(O)cc2)C(=O)N2C(C(=O)O)=C(CSc3nnnn3C)CS[C@@H]21 [Example 1, 7β-[D-2-(6,7-Diacetoxychromone-3-carboxamido)-2-(4-hydroxyphenyl)acetamido]-7α-methoxy-3-(1-methyl-5-tetrazolyl)thiomethyl-3-cephem-4-carboxylic acid] | ≤ 0.1 | 3.13 (≈ 3.93 µM) | 0.4 (≈ 0.503 µM) | 0.4 (≈ 0.503 µM) | 1.56 (≈ 1.96 µM) | – | – | 0.4 (≈ 0.503 µM) | ≤ 0.1
CO[C@@]1(NC(=O)[C@H](NC(=O)c2coc3c(OC(C)=O)c(OC(C)=O)ccc3c2=O)c2ccc(O)cc2)C(=O)N2C(C(=O)O)=C(CSc3nnnn3C)CS[C@@H]21 [Example 2] | 0.8 (≈ 1.01 µM) | 50 (≈ 62.8 µM) | 0.8 (≈ 1.01 µM) | 6.25 (≈ 7.85 µM) | 1.56 (≈ 1.96 µM) | – | – | 3.13 (≈ 3.93 µM) | ≤ 0.1
CO[C@@]1(NC(=O)[C@H](NC(=O)c2coc3c(O)c(O)ccc3c2=O)c2ccc(O)cc2)C(=O)N2C(C(=O)O)=C(CSc3nnnn3C)CS[C@@H]21 [Example 4, 7β-[D-2-(7,8-Dihydroxychromone-3-carboxyamido)-2-(4-hydroxyphenyl)acetamido]-7α-methoxy-3-(1-methyl-5-tetrazolyl)thiomethyl-3-cephem-4-carboxylic acid] | 0.8 (≈ 1.12 µM) | 50 (≈ 70.3 µM) | 0.8 (≈ 1.12 µM) | 3.13 (≈ 4.4 µM) | 3.13 (≈ 4.4 µM) | – | – | 3.13 (≈ 4.4 µM) | ≤ 0.1
CO[C@@]1(NC(=O)[C@H](NC(=O)c2coc3cc(O)c(O)cc3c2=O)c2ccccc2)C(=O)N2C(C(=O)O)=C(COC(C)=O)CS[C@@H]21 [Example 5, 7β-[D-2-(6,7-Dihydroxychromone-3-carboxamido)-2-phenylacetamido]-7α-methoxy-3-acetoxymethyl-3-cephem-4-carboxylic acid] | 0.2 (≈ 0.313 µM) | 25 (≈ 39.1 µM) | 3.13 (≈ 4.89 µM) | 0.8 (≈ 1.25 µM) | 3.13 (≈ 4.89 µM) | – | – | 0.8 (≈ 1.25 µM) | ≤ 0.1
CO[C@@]1(NC(=O)[C@H](NC(=O)c2coc3cc(O)c(O)cc3c2=O)c2ccccc2)C(=O)N2C(C(=O)O)=C(CSc3nnc(C)s3)CS[C@@H]21 [Example 6, 7β-[D-2-(6,7-Dihydroxychromone-3-carboxyamido)-2-phenylacetamido]-7α-methoxy-3-[2-5-methyl-2-(1,3,4-thiadiazolyl)]thiomethyl-3-cepnem-4-carboxylic acid] | ≤ 0.1 | 12.5 (≈ 17.6 µM) | 3.13 (≈ 4.4 µM) | 0.8 (≈ 1.12 µM) | 3.13 (≈ 4.4 µM) | – | – | 0.8 (≈ 1.12 µM) | ≤ 0.1
CO[C@@]1(NC(=O)[C@H](NC(=O)c2coc3c(O)c(O)ccc3c2=O)c2ccccc2)C(=O)N2C(C(=O)O)=C(COC(C)=O)CS[C@@H]21 [Example 7, 7β-[D-2-(7,8-Dihydroxychromone-3-carboxyamido)-2-phenylacetamido]-7α-methoxy-3-acetoxymethyl-3-cephem-4-carboxylic acid] | 12.5 (≈ 19.5 µM) | 100 (≈ 156 µM) | 3.13 (≈ 4.89 µM) | 50 (≈ 78.2 µM) | 6.25 (≈ 9.77 µM) | – | – | 3.13 (≈ 4.89 µM) | 0.2 (≈ 0.313 µM)
CO[C@@]1(NC(=O)[C@H](NC(=O)c2coc3ccccc3c2=O)c2ccc(O)cc2)C(=O)N2C(C(=O)O)=C(CSc3nnnn3C)CS[C@@H]21 [Example 10, 7β-[D-2-(Chromone-3-carboxamido)-2-(4-hydroxyphenyl)acetamido]-7α-methoxy-3-(1-methyl-5-tetrazolyl)thiomethyl-3-cephem-4-carboxylic acid] | 12.5 (≈ 18.4 µM) | 25 (≈ 36.8 µM) | 25 (≈ 36.8 µM) | 50 (≈ 73.6 µM) | 0.4 (≈ 0.589 µM) | – | – | 12.5 (≈ 18.4 µM) | 12.5 (≈ 18.4 µM)
CO[C@@]1(NC(=O)[C@H](NC(=O)c2coc3c(C)c(OCc4ccccc4)ccc3c2=O)c2ccccc2)C(=O)N2C(C(=O)O)=C(COC(C)=O)CS[C@@H]21 [Example 13, 7β-[D-2-(7-Benzyloxy-8-methylchromone-3-carboxamido)-2-phenylacetamido]-7α-methoxy-3-acetoxymethyl-3-cephem-4-carboxylic acid] | 3.13 (≈ 4.3 µM) | 1.56 (≈ 2.14 µM) | 12.5 (≈ 17.2 µM) | 0.8 (≈ 1.1 µM) | 0.4 (≈ 0.55 µM) | – | – | 3.13 (≈ 4.3 µM) | 3.13 (≈ 4.3 µM)
CO[C@@]1(NC(=O)[C@H](NC(=O)c2coc3cc(O)c(O)cc3c2=O)c2ccc(O)cc2)C(=O)N2C(C(=O)O)=C(CSc3nnnn3CC(=O)O)CS[C@@H]21 [Example 15, 7β-[D-2-(6,7-Dihydroxychromone-3-carboxamido)-2-(4-hydroxyphenyl)acetamido]-7α-methoxy-3-(1-carboxymethyl-5-tetrazolyl)thiomethyl-3-cephem-4-carboxylic acid] | 0.4 (≈ 0.529 µM) | 12.5 (≈ 16.5 µM) | 3.13 (≈ 4.14 µM) | 1.56 (≈ 2.06 µM) | 6.25 (≈ 8.27 µM) | – | – | 6.25 (≈ 8.27 µM) | ≤ 0.1
CO[C@@]1(NC(=O)[C@H](NC(=O)c2coc3c(O)c(O)ccc3c2=O)c2ccc(O)cc2)C(=O)N2C(C(=O)O)=C(CSc3nnnn3CC(=O)O)CS[C@@H]21 [Example 18, 7β-[D-2-(7,8-Dihydroxychromone-3-carboxamido)-2-(4-hydroxyphenyl)acetamido]-7α-methoxy-3-(1-carboxymethyl-5-tetrazolyl)thiomethyl-3-cephem-4-carboxylic acid] | 3.13 (≈ 4.14 µM) | 50 (≈ 66.2 µM) | 6.25 (≈ 8.27 µM) | 6.25 (≈ 8.27 µM) | 25 (≈ 33.1 µM) | – | – | 25 (≈ 33.1 µM) | 0.8 (≈ 1.06 µM)
COC(=O)Cn1nnnc1SCC1=C(C(=O)O)N2C(=O)[C@](NC(=O)[C@H](NC(=O)c3coc4cc(O)c(O)cc4c3=O)c3ccc(O)cc3)(OC)[C@H]2SC1 [Example 19, 7β-[D-2-(6,7-Dihydroxychromone-3-carboxamido)-2-(4-hydroxyphenyl)acetamido]-7α-methoxy-3-(1-methoxycarbonylmethyl-5-tetrazolyl)thiomethyl-3-cephem-4-carboxylic acid] | ≤ 0.1 | 1.56 (≈ 2.03 µM) | 0.8 (≈ 1.04 µM) | 0.4 (≈ 0.52 µM) | 3.13 (≈ 4.07 µM) | – | – | 1.56 (≈ 2.03 µM) | ≤ 0.1
CCOC(=O)Oc1cc2occ(C(=O)N[C@@H](C(=O)N[C@]3(OC)C(=O)N4C(C(=O)O)=C(COC(C)=O)CS[C@@H]43)c3ccc(O)cc3)c(=O)c2cc1OC(=O)OCC [Example 22, 7β-[D-2-(6,7-Bis(ethoxycarbonyloxy)chromone-3-carboxamido)-2-(4-hydroxyphenyl)acetamido]-7α-methoxy-3-acetoxymethyl-3-cephem-4-carboxylic acid] | 0.4 (≈ 0.5 µM) | 25 (≈ 31.3 µM) | 0.8 (≈ 1 µM) | 1.56 (≈ 1.95 µM) | 1.56 (≈ 1.95 µM) | – | – | 6.25 (≈ 7.82 µM) | ≤ 0.1
